This test deals with T1, PDK1 (Homo sapiens, UniProt O15530).
T1 construct: His6 (N)
T1 sequence (O15530 51-556 limits assumed): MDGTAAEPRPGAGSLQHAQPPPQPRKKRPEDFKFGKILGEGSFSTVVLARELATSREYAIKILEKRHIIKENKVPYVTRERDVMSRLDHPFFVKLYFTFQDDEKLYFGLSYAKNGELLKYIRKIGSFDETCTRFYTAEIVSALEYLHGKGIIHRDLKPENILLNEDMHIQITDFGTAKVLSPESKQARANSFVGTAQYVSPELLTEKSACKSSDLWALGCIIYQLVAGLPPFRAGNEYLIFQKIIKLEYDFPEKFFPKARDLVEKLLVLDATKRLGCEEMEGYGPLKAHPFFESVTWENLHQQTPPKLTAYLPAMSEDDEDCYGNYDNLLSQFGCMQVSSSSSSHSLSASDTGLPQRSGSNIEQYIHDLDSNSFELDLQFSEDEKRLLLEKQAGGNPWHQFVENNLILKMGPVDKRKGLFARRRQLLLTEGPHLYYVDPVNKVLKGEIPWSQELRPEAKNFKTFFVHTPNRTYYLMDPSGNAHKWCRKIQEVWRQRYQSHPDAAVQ
The test is described as follows: Test for the inhibition of PDK1 (flashplate, 33P-ATP). Type of test: biochemical. To be noted: His6-PDK1 3.4 nM, 4 μM ATP, 30° C., 60 min. Here is the method: The experimental batches are carried out in a flashplate system with 384 wells/microtitration plate.
In each case, the PDK1 sample His6-PDK1(1-50)(3.4 nM), the PDK1 substrate biotin-bA-bA-[…] (400 nM), 4 μM ATP (with 0.2 μCi of ^33 P-ATP/well) and the test substance in 50 μl of conventional experimental solution per well are incubated at 30° C. for 60 min. The test substances are employed in corresponding concentrations (if desired in a dilution series). The control is carried out without test substance. The reaction is stopped using standard methods and washed. The activity of the kinase is measured via the incorporated radioactivity in top count. In order to determine the non-specific kinase reaction (blank value), the experimental batches are carried out in the presence of 100 nM staurosporin.
The radioactivity (decompositions per minute) of the blank value (no use of test substance in the presence of staurosporin) is subtracted from all other radioactivity values. The controls (kinase activity without test substance) are set equal to 100 percent and all other radioactivity values (after subtracting the blank value) are expressed set in relation thereto (for example in % of the control).
[formula] IC50 values (50% inhibition) are determined with the aid of statistics programmes, such as, for example, RS1.

As to `CC(C)C(O)(c1ccccc1)c1cc(-c2c[nH]c3ncc(-c4cnn(C)c4)cc23)nc(N)n1` (centres unmarked) [A82, 1-{2-amino-6-[5-(1-methyl-1H-pyrazol-4-yl)-1H-pyrrolo[2,3-b]pyridin-3-yl]-pyrimidin-4-yl}-2-methyl-1-phenylpropan-1-ol], half-maximal inhibition (IC50) was put at 78 nM.

`CC(O)(c1ccccc1)c1cc(-c2c[nH]c3ncc(-c4cnn(S(C)(=O)=O)c4)cc23)nc(N)n1` (centres unmarked) [A48, 1-{2-amino-6-[5-(1-methanesulfonyl-1H-pyrazol-4-yl)-1H-pyrrolo[2,3-b]pyridin-3-yl]pyrimidin-4-yl}-1-phenylethanol]: 140 nM corresponded to half-maximal inhibition (IC50).

`CCC(OCOC)(c1cc(-c2c[nH]c3ncc(-c4cnn(C)c4)cc23)nc(N)n1)c1cccc(Cl)c1F` (centres unmarked) [A30, 4-[1-(3-chloro-2-fluorophenyl)-1-methoxymethoxypropyl]-6-[5-(1-methyl-1H-pyrazol-4-yl)-1H-pyrrolo[2,3-b]pyridin-3-yl]pyrimidin-2-ylamine]: the IC50 – broadly, the concentration at which inhibition is half-maximal – came to 130 nM. On to `CC(O)(c1cccc(F)c1)c1cc(-c2c[nH]c3ncc(-c4ccc(CO)cc4)cc23)nc(N)n1` (centres unmarked) [A49, 1-{2-amino-6-[5-(4-hydroxymethylphenyl)-1H-pyrrolo[2,3-b]pyridin-3-yl]-pyrimidin-4-yl}-1-(3-fluorophenyl)ethanol], for which the midpoint of inhibition, the IC50, lay at 36 nM. In the case of `COCO[C@](C)(c1cccc(F)c1)c1cc(-c2c[nH]c3ncc(Br)cc23)nc(N)n1` [A73, 4-(5-bromo-1H-pyrrolo[2,3-b]pyridin-3-yl)-6-[(R)-1-(3-fluorophenyl)-1-methoxymethoxyethyl]pyrimidin-2-ylamine], the half-maximal inhibitory concentration (IC50) was > 30000 nM. The same measure for `CC(O)(c1ccccc1)c1cc(-c2c[nH]c3ncc(-c4cnn(CCO)c4)cc23)nc(N)n1` (single isomer, unassigned) [A96, 1-(2-amino-6-{5-[1-(2-hydroxyethyl)-1H-pyrazol-4-yl]-1H-pyrrolo[2,3-b]-pyridin-3-yl}pyrimidin-4-yl)-1-phenylethanol]: 18 nM; for `CCCC(OCOC)(c1ccncc1)c1cc(-c2c[nH]c3ncc(-c4cnn(C)c4)cc23)nc(N)n1` (centres unmarked) [A36, 4-(1-methoxymethoxy-1-pyridin-4-ylbutyl)-6-[5-(1-methyl-1H-pyrazol-4-yl)-1H-pyrrolo[2,3-b]pyridin-3-yl]pyrimidin-2-ylamine]: 56 nM; for `CC(O)(c1ccccc1)c1cc(-c2c[nH]c3ncc(-c4ccnnc4)cc23)nc(N)n1` (centres unmarked) [A101, 1-[2-amino-6-(5-pyridazin-4-yl-1H-pyrrolo[2,3-b]pyridin-3-yl)pyrimidin-4-yl]-1-phenylethanol]: 740 nM. As for `CC(O)(c1cccc(F)c1)c1cc(-c2c[nH]c3ncc(-c4ccc(CC#N)cc4)cc23)nc(N)n1` (centres unmarked) [A55, [4-(3-{2-amino-6-[1-(3-fluorophenyl)-1-hydroxyethyl]pyrimidin-4-yl}-1H-pyrrolo[2,3-b]pyridin-5-yl)phenyl]acetonitrile], half-maximal inhibition (IC50) required 75 nM. This IC50 lies about 9.9-fold lower than the previous one.

The compound `COCOC(C)(c1ccccc1)c1cc(-c2c[nH]c3ncc(-c4cnn(C)c4)cc23)nc(N)n1` (centres unmarked) [A25, 4-(1-methoxymethoxy-1-phenylethyl)-6-[5-(1-methyl-1H-pyrazol-4-yl)-1H-pyrrolo[2,3-b]pyridin-3-yl]pyrimidin-2-ylamine] returned an IC50 of 58 nM. For `COCOC(C)(c1cccc(C)c1)c1cc(-c2c[nH]c3ncc(-c4cnn(CCO)c4)cc23)nc(N)n1` (centres unmarked) [A22, 2-(4-{3-[2-amino-6-(1-methoxymethoxy-1-m-tolylethyl)pyrimidin-4-yl]-1H-pyrrolo[2,3-b]pyridin-5-yl}pyrazol-1-yl)ethanol], the IC50 was determined as 59 nM.

`CC(O)(c1ccccc1)c1cc(-c2c[nH]c3ncc(-c4cnn(CC(F)F)c4)cc23)nc(N)n1` (centres unmarked) [A84, 1-(2-amino-6-{5-[1-(2,2-difluoroethyl)-1H-pyrazol-4-yl]-1H-pyrrolo[2,3-b]-pyridin-3-yl}pyrimidin-4-yl)-1-phenylethanol] returned an IC50 of 50 nM. Next, `CC(C)(C)OC(=O)NCCNC(=O)CCn1cc(-c2cnc3[nH]cc(-c4cc(C(C)(O)c5ccccc5)nc(N)n4)c3c2)cn1` (centres unmarked) [A63, tert-butyl {2-[3-(4-{3-[2-amino-6-(1-hydroxy-1-phenylethyl)pyrimidin-4-yl]-1H-pyrrolo[2,3-b]pyridin-5-yl}pyrazol-1-yl)propionylamino]ethyl}carbamate]: 110 nM. The same measure for `Cn1cc(-c2cnc3[nH]cc(-c4cc(C(C)(O)c5cccnc5)nc(N)n4)c3c2)cn1` (single isomer, unassigned) [A57, 1-{2-amino-6-[5-(1-methyl-1H-pyrazol-4-yl)-1H-pyrrolo[2,3-b]pyridin-3-yl]-pyrimidin-4-yl}-1-pyridin-3-ylethanol]: 28 nM; for `CCOC(C)(c1ccccc1)c1cc(-c2c[nH]c3ncc(-c4cnn(C)c4)cc23)nc(N)n1` (centres unmarked) [A76, 4-(1-ethoxy-1-phenylethyl)-6-[5-(1-methyl-1H-pyrazol-4-yl)-1H-pyrrolo-[2,3-b]pyridin-3-yl]pyrimidin-2-ylamine]: 79 nM. Compound `Cn1cc(-c2cnc3[nH]cc(-c4cc(C(C)(O)c5ccc(=O)[nH]c5)nc(N)n4)c3c2)cn1` (centres unmarked) [A111, 5-(1-{2-amino-6-[5-(1-methyl-1H-pyrazol-4-yl)-1H-pyrrolo[2,3-b]pyridin-3-yl]-pyrimidin-4-yl}-1-hydroxyethyl)-1H-pyridin-2-one] yielded a concentration for half-maximal inhibition (IC50) of 26 nM. The same measure for `Cn1cc(-c2cnc3[nH]cc(-c4cc(C(O)(c5ccccc5)C5CCCC5)nc(N)n4)c3c2)cn1` (centres unmarked) [A85, {2-amino-6-[5-(1-methyl-1H-pyrazol-4-yl)-1H-pyrrolo[2,3-b]pyridin-3-yl]-pyrimidin-4-yl}cyclopentylphenylmethanol]: 52 nM; for `CC(O)(c1ccncc1)c1cc(-c2c[nH]c3ncc(-c4cnn(CC(=O)N5CCCCC5)c4)cc23)nc(N)n1` (centres unmarked) [A61, 2-(4-{3-[2-amino-6-(1-hydroxy-1-pyridin-4-ylethyl)pyrimidin-4-yl]-1H-pyrrolo-[2,3-b]pyridin-5-yl}pyrazol-1-yl)-1-piperidin-1-ylethanone]: 2.1 nM; for `C=C(CF)n1cc(-c2cnc3[nH]cc(-c4cc(C(C)(O)c5ccccc5)nc(N)n4)c3c2)cn1` (centres unmarked) [A79, 1-(2-amino-6-{5-[1-(1-fluoromethylvinyl)-1H-pyrazol-4-yl]-1H-pyrrolo[2,3-b]-pyridin-3-yl}pyrimidin-4-yl)-1-phenylethanol]: 68 nM.

In the case of `CC(O)(c1ccccc1)c1cc(-c2c[nH]c3ncc(-c4cnn(CCO)c4)cc23)nc(N)n1` (single isomer, unassigned) [A97, 1-(2-amino-6-{5-[1-(2-hydroxyethyl)-1H-pyrazol-4-yl]-1H-pyrrolo[2,3-b]-pyridin-3-yl}pyrimidin-4-yl)-1-phenylethanol], inhibition was half-maximal at 38 nM (IC50). The same measure for `CC[C@@](O)(c1ccncc1)c1cc(-c2c[nH]c3ncc(-c4cnn(CC(=O)N5CCCCC5)c4)cc23)nc(N)n1` [A46, 2-(4-{3-[2-amino-6-((R)-1-hydroxy-1-pyridin-4-ylpropyl)pyrimidin-4-yl]-1H-pyrrolo[2,3-b]pyridin-5-yl}pyrazol-1-yl)-1-piperidin-1-ylethanone]: 55 nM. Compound `COC(=O)CCn1cc(-c2cnc3[nH]cc(-c4cc(C(C)(O)c5ccccc5)nc(N)n4)c3c2)cn1` (centres unmarked) [A70, methyl 3-(4-{3-[2-amino-6-(1-hydroxy-1-phenylethyl)pyrimidin-4-yl]-1H-pyrrolo[2,3-b]pyridin-5-yl}pyrazol-1-yl)propionate] returned an IC50 of 48 nM. The IC50 values of the last two compounds are within 1.5-fold of each other. Next, `CC(O)(c1ccccc1)c1cc(-c2c[nH]c3ncc(-c4cnn(C(F)F)c4)cc23)nc(N)n1` (centres unmarked) [A39, 1-{2-amino-6-[5-(1-difluoromethyl-1H-pyrazol-4-yl)-1H-pyrrolo[2,3-b]pyridin-3-yl]pyrimidin-4-yl}-1-phenylethanol]: 91 nM; `COCOC(C)(c1ccccc1)c1cc(-c2c[nH]c3ncc(-c4cnn(CCC(N)=O)c4)cc23)nc(N)n1` (centres unmarked) [A74, 3-(4-{3-[2-amino-6-(1-methoxymethoxy-1-phenylethyl)pyrimidin-4-yl]-1H-pyrrolo[2,3-b]pyridin-5-yl}pyrazol-1-yl)propionamide]: 68 nM.

The compound `Cn1cc(-c2cnc3[nH]cc(-c4cc(C(C)(O)c5cccnc5)nc(N)n4)c3c2)cn1` (single isomer, unassigned) [A58, 1-{2-amino-6-[5-(1-methyl-1H-pyrazol-4-yl)-1H-pyrrolo[2,3-b]pyridin-3-yl]-pyrimidin-4-yl}-1-pyridin-3-ylethanol] showed a half-inhibitory concentration (IC50) of 85 nM. The same measure for `COCOC(C)(c1ccccc1)c1cc(-c2c[nH]c3ncc(-c4cnn(CCC(=O)O)c4)cc23)nc(N)n1` (centres unmarked) [A77, 3-(4-{3-[2-amino-6-(1-methoxymethoxy-1-phenylethyl)pyrimidin-4-yl]-1H-pyrrolo[2,3-b]pyridin-5-yl}pyrazol-1-yl)propionic acid]: 43 nM.

These data come from patent publication US8575163B2, “Pyrrolopyridinylpyrimidin-2-ylamine derivatives” (Merck Patent GmbH, priority 2009, dated 2013).
